We go through one compound from patent US8629328B2 (Monsanto Technology LLC, priority 2006, dated 2014).

One data set has as its system MARESTAIL (CA) Resistant. Nature of the data set: Control of marestail by dicamba or glyphosate, treated at rosette leaf stage. The format is in vivo, Conyza canadensis. To be noted: dicamba formulation 280 g/ha. An excerpt:
(§1) Marestail is one of the major weeds in a crop field. Marestail is effectively controlled by glyphosate, but the development of methods for controlling this common weed with other herbicides is important to minimize opportunities for herbicide tolerance to develop.

The next data set deals with MARESTAIL (KY) Resistant. Described as above. The format is in vivo, Conyza canadensis. To be noted: dicamba formulation 280 g/ha.
Source text: as §1

Data set [1] relates to soybean plants transformed with the DMO-encoding polynucleotide construct (Events 1-4). How it is done:
Transgenic soybean plants were obtained by Agrobacterium transformation of soybean cotyledonary nodes using standard procedures and a binary vector containing the DMO-encoding polynucleotide given as SEQ ID NO:7, which encodes the polypeptide of SEQ ID NO:8. Four transgenic soybean events were prepared and designated Events 1-4. […] Non-transgenic soybean plants were used as controls.
Transgenic and control soybean seeds were planted into 3.5-inch square plastic pots containing Redi-earth™ (Scotts-Siena Horticultural Products Co., Marysville, Ohio). […] The pots were placed on capillary matting in 35 inch×60 inch fiberglass watering trays for overhead and/or sub-irrigation for the duration of the test period so as to maintain optimum soil moisture for plant growth and were fertilized with Osmocote (14-14-14 slow release; Scotts-Siena Horticultural Products Co., Marysville, Ohio) at the rate of 100 gm/cu.ft. to sustain plant growth for the duration of greenhouse trials.
The plants were grown in greenhouses at 27°/21° C. day/night temperature with relative humidity between 25%-75% to simulate warm season growing conditions of late spring. A 14 h minimum photoperiod was provided with supplemental light at about 600 μE as needed.
Treated plants in greenhouse trials were visually assessed at a particular day after treatment (DAT) for injury on a scale of 0 to 100 percent relative to untreated control plants, with zero representing “no” injury and 100% representing “complete” injury or death. Data were collected and analyzed using suitable statistical methods.
The spray nozzle was kept at a height of about 16 inches above the top of the plant material for spraying. The spray volume was 10 gallons per acre or 93 liters per hectare.

For data set [2], the system named is transgenic corn plants transformed with DNA constructs carrying DMO. Conditions: for Percentage brace root injury: 0.5 lb/a at V3 followed by 1 lb/a at V8. The source says:
This expression element contains first intron and flanking UTR exon sequences from the rice actin 1 gene and includes 12 nt of exon 1 at the 5′ end and 7 nt of exon 2 at the 3′ end), and a 3′UTR (e.g. TaHsp17). Nucleotide sequences/an or patent references for various expression elements are disclosed in co-pending application U.S. Ser. No. 60/891,675.
(§2) Transgenic corn plants were produced by the methods known in the art such as WO9506722 and US patent application 20040244075. […] Six events from each of the six constructs were used. […] The entire plot was fertilized uniformly to obtain an agronomically acceptable crop. A soil insecticide such as Force® 3G (Syngenta Crop Protection, Greensboro, N.C., USA) at 5 oz. per 1000 ft. of row for control of corn rootworm was applied at planting time. If black cutworm infestation was observed, POUNCE® 3.2EC at 4 to 8 oz. per acre rate (FMC Corporation, Philadelphia, Pa.) was used. In addition, an insecticide spray program was used to control all above ground lepidopteran pests including European corn borer, corn earworm, and fall armyworm. POUNCE® 3.2EC at 4 to 8 oz. per acre was applied every 3 weeks to control lepidopteran pests; about 4 applications were made. The plot was kept weed free with a pre-emergence application of a herbicide such as Harness® Xtra 5.6 L (Monsanto, St. Louis, Mo.) and Degree Xtra® (Monsanto, St. Louis, Mo.).
(§3) Brace root injury was evaluated visually by counting the number of plants in a row showing an “atypical” morphology of having the brace roots fused as compared to a typical morphology of “finger-like” structure.

The test system of data set [3] is corn inbreds 01CSI6 and LH244. Conditions: 0.5 lb/a at V3 followed by 1 lb/a at V8.
Source text: as §2, §3

The next data set deals with Marestail Resistant (KY). Description: Dicamba, glyphosate and their combination on marestail. The format is in vivo, Conyza canadensis. Conditions: dicamba formulation 40 g/ha.

Read-outs that look alike come from different tables or passages of the source.

Take `COc1c(Cl)ccc(Cl)c1C(=O)O` [dicamba, 3,6-dichloro-o-anisic acid]: the entries for the “% Injury (21 DAT)” value with MARESTAIL (CA) Resistant and with MARESTAIL (KY) Resistant were “about 83%” and “about 91%”, respectively. Also, the “injury to transgenic dicamba tolerant plants” value in data set [1] (approximately 2× rate of application of 1122 g/ha) is reported as “less than 2%”. Moreover, the “injury to transgenic plants” value in data set [1] (at sowing + post-emergence, overall dicamba rate 10080 g/ha, 9 lb/acre, 18× labeled rate) was “less than 20%”. Also, the “injury to transgenic events” value in data set [1] (late pre-emergence + post-emergence, overall 10080 g/ha, 9 lb/acre, 18× labeled rate) was “less than 20%”. The “injury in the transgenic events” value in data set [1] (late pre-emergence at soil cracking, 5040 g/ha, 4.5 lb/acre, 9× labeled rate) is “less than 5%”. The “level of brace root injury” value in data set [2] (constructs coding for a DMO linked to a CTP (pMON73716, pMON73700, pMON73715, pMON73703)) is listed as “lower level of brace root injury”; in data set [2] (constructs coding for a DMO without CTP (pMON73699, pMON73704)), “higher level of brace root injury”. In addition, the “Percentage brace root injury” value in data set [2] (pMON73699 (PC1SV/I-OsAct1/DMO-Wmc/TaHsp17)) is listed as 93.2%; in data set [2] (pMON73700 (PC1SV/I-OsAct1/CTP1/DMO-Wmc/TaHsp17)), 74.4%; in data set [2] (pMON73703 (e35S/I-OsAct1/CTP1/DMO-Wmc/TaHsp17)), 68.8%; in data set [2] (pMON73704 (e35S/I-OsAct1/DMO-Wmc/TaHsp17)), 91.3%; in data set [2] (pMON73715 (PC1SV/I-OsAct1/CTP2syn/DMO-Wmc/TaHsp17)), 68.2%; in data set [2] (pMON73716 (PC1SV/I-OsAct1/TaWaxy/DMO-Wmc/TaHsp17)) it was 78.8%. Besides, the “Percentage brace root injury” value came out at 95.4% in data set [3] (01CSI6, susceptible inbred to dicamba) and 93.8% in data set [3] (LH244, resistant inbred to dicamba). The “% Injury (18 DAT)” value in the data set with Marestail Resistant (KY) is “about 52%”.
